Assay [1] relates to RA patients. Conditions: 25 studies, 3907 RA patients; cited from earlier work.
Assay [2] relates to patients with active RA. Nature of the assay: ASPIRE trial: joint damage progression (modified Sharp/van der Heijde score) baseline to week 54. The assay is classed as in vivo, human. The procedure:
Details on the patient population and study protocol on which we have tested our model have been presented previously (StClair et al. Arthritis Rheum 2004; 50:3432-3443). […] In addition, patients had >=10 swollen joints (66 joint count), >=12 tender joints (68 joint count), and >=1 of the following: rheumatoid factor (RF) positivity, radiographic erosions of the hands or feet, or serum C-reactive protein (CRP) level >=2.0 mg/dl.
The institutional review boards at participating sites approved the study protocol. All patients provided written informed consent. Patients were randomized in a 4:5:5 ratio to receive placebo, infliximab 3 mg/kg, or infliximab 6 mg/kg at weeks 0, 2, and 6, and then every 8 weeks through week 46. All patients were treated with oral MTX starting at 7.5 mg/week at week 0; MTX doses were increased by 2.5 mg every 1-2 weeks to reach 15 mg/week by week 4 and 20 mg/week by week 8. MTX was administered to all patients through week 54. Patients also received folic acid >=5 mg/week.
The American College of Rheumatology core set variables (Felson A&R 1993), including numbers of tender and swollen joints, were documented at each visit. The 28 joint count (Prevoo A&R 1995) was used in the creation of our model as it is more appropriate and more frequently used in daily clinical practice as compared to the 66/68 count. The Westergren method (Koepke 1988) was used to determine erythrocyte sedimentation rate (ESR) at weeks 0, 6, 30, and 54; normal ESR levels were <=20 mm/hour for women and <=15 mm/hour for men. CRP levels (normal <0.8 mg/dl) were measured by nephelometry (Stites 1997) at screening and each visit thereafter. (If possible RF testing should be specified as different IG's tested for have different correlation with radiological progression. Radiographs of the hands and feet were obtained within 4 weeks of receiving the first dose of the study drug, at weeks 30 and 54, and upon use of a protocol-prohibited medication or study termination, as applicable. Joint damage was assessed by change in the modified Sharp/van der Heijde score (SHS) (vander Heijde Lancet 1989) from baseline to week 54.
Of the 1,049 patients enrolled in the ASPIRE trial, 1,004 were prospectively identified as eligible for inclusion in the efficacy analyses prior to unblinding (StClair A&R 2004). […] Summary statistics of median, mean, and interquartile ranges are presented for continuous variables. Spearman correlation analyses were performed to evaluate the association between baseline covariates and changes in radiographic scores. Tests for statistical significance were performed using analysis of variance on van der Waerden normal scores. For categorical response parameters, treatment group comparisons were made using the chi-square test. […]

Consider `CC(=O)OC[C@H]1O[C@@H]([S-])[C@H](OC(C)=O)[C@@H](OC(C)=O)[C@@H]1OC(C)=O.CCP(CC)CC.[Au+]` [auranofin], for which, in assay [1], the “change in erosion scores versus placebo” value was “statistically better than placebo”.
Take `O=C(O)c1cc(/N=N/c2ccc(S(=O)(=O)Nc3ccccn3)cc2)ccc1O` [SSZ, sulphasalazine]: the “change in erosion scores versus placebo” value in assay [1] is reported as “statistically better than placebo”.
In the case of `Cc1oncc1C(=O)Nc1ccc(C(F)(F)F)cc1` [leflunomide], the “change in erosion scores versus placebo” value in assay [1] is given as “statistically better than placebo”.
As to `CN(Cc1cnc2nc(N)nc(N)c2n1)c1ccc(C(=O)N[C@@H](CCC(=O)O)C(=O)O)cc1` [MTX, methotrexate], in assay [1], the “change in erosion scores versus placebo” value is listed as “statistically better than placebo”. In assay [2] (MTX alone), the “change in the SHS from baseline to week 54 (mean+/−SD)” value is 3.7+/−9.6. Further, in assay [2] (baseline to week 54), the “patients showing an increase in radiographic score” value is 61%, the “patients showing an increase of radiographic score of at least 5 SHS units” value is 23% and the “patients with SHS of 0 at baseline who did not progress” value is 63%.
infliximab: in assay [1], the “change in erosion scores versus placebo” value is on record as “statistically better than placebo” and the “rank versus other agents in preventing radiological progression” value was “superior to the last five agents”.
“interleukin 1 receptor antagonist: interleukin 1 receptor antagonist”: in assay [1], the “change in erosion scores versus placebo” value is on record as “statistically better than placebo”.

Values taken from patent US20100145901A1, “MATRIX MARKER MODEL AND METHODS FOR ASSESSING AND TREATING ARTHRITIS AND RELATED DISORDERS” (priority 2007, published 2010).
